“Also recorded” adds a separate entry of the source. Like-named read-outs stand apart in the source and are kept apart here.
Legend:
MODE-K cells [1] = assay: Relative transcript abundance of target genes in MODE-K cells conditioned with compounds
Source text: 4-ethoxymethylene-2-phenyl-2-oxazol-5-one, (referred to as oxazolone, FIG. 1A) has been widely utilized in models of contact hypersensitivity and when applied to the mucosa has been proposed to cause colitis through its properties as a hapten (Gorbachev and Fairchild 2001). However to date there is limited evidence for hapten-specific antibody production or responses following topical oxazolone sensitization or hapten modified autologous proteins or luminal antigens identified at mucosal sites (Singleton et al. 2016, Yanaba et al. 2008, Wirtz et al. 2007). […] It was then determined whether oxazolone could affect the expression of these transcripts in the intestinal epithelium in a cell intrinsic manner by directly stimulating an immortalized intestinal epithelial cell line (IEC) derived from mouse small intestine, MODE-K, with oxazolone.
To test this, a systematic in vitro system was devised to assess transcriptional and CD1d-restricted responses in IECs in response to stimulation with dietary OxC structures, including 2,4,5-trimethyl-2,5-dihydro-1,3-oxazole (referred to as TMO, FIG. 1A) found in coffee, peanuts, meats and utilized as a food additive, which lacks the 2-phenyl ring, 5-ketone, and 4-ethoxymethylene present in oxazolone (Vitzthum et al. 1975, Stoffesima et al. 1968, Lee et al. 1981, Chang et al. 1968, Ho and Hartman 1968).

MODE-K cells [2] = assay: CD1d-restricted IL-10 production in MODE-K:NKT cell hybridoma co-culture; assay type: cell-based, mouse; settings: for compound induced inhibition of CD1d-restricted IL-10 production when AhR expression is silenced / decrease of IL-10 production when AhR was silenced: AhR siRNA; for compound induced inhibition of CD1d-restricted IL-10 production when AhR expression is silenced: IEC:iNKT cell co-cultures; for IL-10 production / decrease of IL-10 production when AhR was silenced: tryptophan-deficient conditions supplemented with kyneurenic acid; for epithelial derived IL-10: no exogenous α-GC
MODE-K cells [3] = assay: Surface CD1d loaded with α-GC (L363 antibody staining) in MODE-K cells; assay type: cell-based, mouse; settings: for compound induced reduction of cell surface CD1d lipid antigen loading when AhR expression is silenced: AhR siRNA
Source text: (§1) In light of the decreased MTP expression observed in oxazolone treated IECs (FIG. 1B) and given that MTP loss alters the ability of CD1d to acquire exogenous antigens, such as α-GC, and CD1d elicited IL-10 responses by epithelial cells (Dougan et al. 2005, Dougan et al. 2007, Zeissig et al 2017, Sagiv et al. 2007, Brozovic et al. 2004, Olszak et al. 2014), it was investigated whether CD1d expression and lipid loading on oxazolone conditioned IECs.

C57Bl/6 mice [4] = assay: Intra-rectal administration, colonic inflammation in vivo; parameters: species or system mouse; settings: for IL-10 production in colonic explants: AhrΔIEC compared to wildtype controls, after intra-rectal challenge; for host protection, disease manifestations / weight loss: AhrΔIEC relative to Ahrfl/fl mice
Experimental: It was tested whether a dietary sourced minimal oxazole structure was sufficient to induce intestinal inflammation in vivo. […] To confirm this, the ability of oxazolone skin pre-sensitization to affect the responses to rectal challenge with TMO and vice-versa (FIG. 9D).
Next, it was tested whether B17 microcin derivatives could induce intestinal inflammation in vivo. Therefore, adequate quantities of a minimal B17 derivative (termed frag-oz, FIG. 2D) were synthesized to perform in vivo experiments and challenged animals via intra-rectal administration. […] These studies identify an oxazole containing microbial mimic that promotes CD1d-dependent intestinal inflammation independent of its classical anti-microbial activity.
These studies reveal a novel role for epithelial derived AhR signals in promoting mucosal inflammation when exposed to OxC.

recombinant IDO1 = recombinant IDO1 (Homo sapiens, UniProt P14902); assay: Recombinant IDO1 conversion of L-tryptophan to formyl-kyneurenine; assay type: biochemical; settings: compared to control (TMC) or vehicle
Chain of recombinant IDO1 (P14902 whole entry, species assumed): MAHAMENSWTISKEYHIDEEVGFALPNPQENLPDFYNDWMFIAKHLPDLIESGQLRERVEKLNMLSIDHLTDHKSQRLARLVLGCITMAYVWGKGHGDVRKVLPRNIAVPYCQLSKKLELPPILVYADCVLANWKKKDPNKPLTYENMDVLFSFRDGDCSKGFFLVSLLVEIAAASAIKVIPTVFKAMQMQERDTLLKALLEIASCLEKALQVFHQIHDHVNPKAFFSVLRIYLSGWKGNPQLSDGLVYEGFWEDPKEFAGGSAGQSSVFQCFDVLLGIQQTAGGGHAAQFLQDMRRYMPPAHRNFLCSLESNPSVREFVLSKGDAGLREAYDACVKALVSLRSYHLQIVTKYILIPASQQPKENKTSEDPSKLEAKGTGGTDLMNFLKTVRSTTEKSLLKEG

human IDO1(hIDO1) = target: T1, human IDO1(hIDO1) (Homo sapiens, UniProt P14902); assay: In vitro screening assay for IDO1 enhancers; assay type: biochemical
T1 construct: made in house
T1 sequence (P14902 whole entry): as the sequence (P14902 whole entry, species assumed) above
Experimental: An in vitro screen for IDO1 enhancers was developed based on the following categories: Synthetic, dietary, and microbial compounds with structural similarity to oxazole template.
SDS-PAGE gel under reducing conditions showing that hIDO1 was purified to >95% purity after HiTrap HP chelating column.
HiPrep 16/60 Sephacryl S-200 HR column (GE Healthcare Life Sciences) size-exclusion chromatography in a buffer containing 10 mM HEPES buffer, 150 mM NaCl pH 7.0 of hIDO1 showing single peak and peak maximum of purified protein at 126.2 minutes.
Sizing fractions a3-a11 were checked for Heme absorbance at 402 and 280 nm. Fractions showing >2.0 Heme ratio were pooled and concentrated, and final 1.5 mg/ml concentrated protein was used for final bound heme estimation. A ratio of 2.22 at 402/280 nm confirmed heme binding to purified recombinant hIDO1 protein.

IECs = assay: LC-MS of deuterated L-trp (D5-Trp) metabolites in IEC lysates; assay type: cell-based; settings: within 6 hours of exposure
Experimental: IDO1 is a rate-limiting enzyme involved in tryptophan catabolism that generates formyl-kyneurenine which can be further metabolized into a variety of AhR agonists (Higuchi and Hayaishi Arch Biochem Biophys 1967, Nguyen and Bradfield 2008, Zelante et al. 2014). […] To specifically identify these tryptophan derived products, IECs were cultured with deuterated L-trp (D5-Trp) and performed high performance liquid chromatography mass spectrometry (LC-MS) on lysates stimulated with oxazolone, TMO, frag-oz or TMC control (FIG. 5C). […] Taken together these latter studies are consistent with a model in which exposure of IECs to oxazole containing compounds leads to the activation of IDO1 and generation of tryptophan-derived metabolites that induce the AhR pathway to downregulate CD1d-restricted responses associated with the production of IL-10 (FIG. 6).

DNA gyrase = DNA gyrase (Escherichia coli, UniProt P0AES4+P0AES6); settings: in vitro; literature (Collin et al. 2013; Yorgey et al. 1994, Li et al. 1996); cited from earlier work
Chain of DNA gyrase (P0AES4 whole entry, one chain of several): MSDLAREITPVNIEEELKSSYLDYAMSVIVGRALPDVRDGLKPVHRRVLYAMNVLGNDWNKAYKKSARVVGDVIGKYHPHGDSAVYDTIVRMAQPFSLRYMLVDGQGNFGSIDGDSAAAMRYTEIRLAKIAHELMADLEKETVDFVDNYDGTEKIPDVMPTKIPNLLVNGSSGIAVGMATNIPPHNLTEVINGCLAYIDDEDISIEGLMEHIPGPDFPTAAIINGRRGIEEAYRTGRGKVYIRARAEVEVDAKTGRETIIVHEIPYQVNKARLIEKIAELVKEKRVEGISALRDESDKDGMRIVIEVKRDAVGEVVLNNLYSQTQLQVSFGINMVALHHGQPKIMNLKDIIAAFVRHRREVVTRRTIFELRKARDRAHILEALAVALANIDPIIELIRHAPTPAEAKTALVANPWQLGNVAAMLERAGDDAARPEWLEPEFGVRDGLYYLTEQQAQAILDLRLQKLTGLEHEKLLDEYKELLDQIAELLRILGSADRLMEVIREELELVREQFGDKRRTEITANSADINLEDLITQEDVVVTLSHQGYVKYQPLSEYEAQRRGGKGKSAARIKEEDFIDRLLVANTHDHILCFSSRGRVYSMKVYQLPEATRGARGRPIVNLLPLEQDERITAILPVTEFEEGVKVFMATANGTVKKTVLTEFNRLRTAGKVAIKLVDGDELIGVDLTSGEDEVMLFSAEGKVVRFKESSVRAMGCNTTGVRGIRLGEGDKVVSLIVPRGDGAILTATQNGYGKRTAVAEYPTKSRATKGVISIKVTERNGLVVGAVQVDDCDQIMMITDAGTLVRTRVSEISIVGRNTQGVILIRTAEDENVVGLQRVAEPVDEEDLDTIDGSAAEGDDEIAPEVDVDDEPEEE

primary hepatocytes = assay: IL-10 production from primary hepatocytes co-cultured with 24.7 iNKT hybridoma; settings: response to iNKT cells in the presence of α-GC
MODE-K cells [5] = assay: Surface and intracellular CD1d protein expression in MODE-K cells (flow cytometry); assay type: cell-based, mouse; settings: IECs stimulated with compound
Source text: as §1

[6] = system: bone marrow-derived dendritic cells; assay: IFN-γ production in bone marrow-derived dendritic cell : 24.7 iNKT hybridoma co-culture; assay type: cell-based; settings: bone marrow-derived dendritic cells with 24.7 iNKT hybridoma and α-GC
[7] = target: T2, aryl hydrocarbon receptor (AhR) (Mus musculus, UniProt P30561); assay: AhR firefly luciferase reporter in IECs; assay type: cell-based; settings: compared to vehicle or 1,2,4-trimethylcyclopentane
T2 construct: IECs were transfected with an AhR firefly luciferase reporter; endogenous in cells; host or cells: MODE-K (mouse intestinal epithelial cell line)
T2 sequence (P30561 10-848): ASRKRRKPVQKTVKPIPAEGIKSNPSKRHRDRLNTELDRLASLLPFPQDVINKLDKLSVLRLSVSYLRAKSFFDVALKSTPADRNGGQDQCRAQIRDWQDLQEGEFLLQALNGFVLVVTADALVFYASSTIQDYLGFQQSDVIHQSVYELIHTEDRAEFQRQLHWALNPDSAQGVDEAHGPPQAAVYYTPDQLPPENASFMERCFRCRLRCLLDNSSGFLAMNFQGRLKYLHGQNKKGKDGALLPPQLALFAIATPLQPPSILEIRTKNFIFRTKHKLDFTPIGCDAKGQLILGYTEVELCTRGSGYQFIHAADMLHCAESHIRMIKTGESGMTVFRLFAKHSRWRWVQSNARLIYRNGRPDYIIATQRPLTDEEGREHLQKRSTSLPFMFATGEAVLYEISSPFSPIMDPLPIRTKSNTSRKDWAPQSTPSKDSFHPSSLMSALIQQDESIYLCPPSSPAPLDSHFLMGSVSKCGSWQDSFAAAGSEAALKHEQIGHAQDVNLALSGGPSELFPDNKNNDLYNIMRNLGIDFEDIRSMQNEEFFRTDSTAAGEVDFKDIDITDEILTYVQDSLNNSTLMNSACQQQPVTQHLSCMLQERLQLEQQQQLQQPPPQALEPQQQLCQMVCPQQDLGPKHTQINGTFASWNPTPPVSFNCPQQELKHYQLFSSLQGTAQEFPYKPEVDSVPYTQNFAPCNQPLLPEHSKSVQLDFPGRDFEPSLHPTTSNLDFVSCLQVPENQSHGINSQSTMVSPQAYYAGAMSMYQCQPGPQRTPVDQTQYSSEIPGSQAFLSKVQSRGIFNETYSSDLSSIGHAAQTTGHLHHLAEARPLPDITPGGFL

C57Bl/6 mice [8] = settings: germ free animals; Olszak et al. 2012; cited from earlier work
[9] = system: epithelial enriched colon fractions; settings: after intra-rectal oxazolone challenge; Olszak et al. 2014; cited from earlier work
[10] = MODE-K cells conditioned with compound, normalized to β-actin
[11] = IECs cultured in tryptophan-deficient media
[12] = tryptophan-deficient media supplemented with exogenous L-tryptophan
[13] = IEC enriched colonic fractions after intra-rectal administration
[14] = intra-rectal administration, wildtype

SMILES	Ido1 transcripts (MODE-K cells [1]; [10])	compound induced inhibition of CD1d-restricted IL-10 production when AhR expression is silenced (MODE-K cells [2])	CD1d-restricted IL-10 production (MODE-K cells [2]; [11])	IL-10 production (MODE-K cells [2])	decrease of IL-10 production when AhR was silenced (MODE-K cells [2])	CD1d-restricted IL-10 production (MODE-K cells [2]; [12])	compound induced reduction of cell surface CD1d lipid antigen loading when AhR expression is silenced (MODE-K cells [3])	IL-10 production in colonic explants (C57Bl/6 mice [4])	host protection, disease manifestations (C57Bl/6 mice [4]; intra-rectal challenge)	weight loss (C57Bl/6 mice [4]; intra-rectal challenge)	ability of IDO1 to convert tryptophan to formyl-kyneurenine (recombinant IDO1)	metabolite that D5-Trp was further metabolized to upon stimulation (IECs)	compound induced inhibition of IL-10 production in hepatocytes from Ahr−/− mice (primary hepatocytes)	other results
CC(=O)NCc1nc(C(N)=O)co1 [frag-oz]	induced expression of these genes in vitro and in vivo	reversed	no longer attenuated	decreased IL-10 production	reduced when AhR was silenced	attenuation of CD1d-restricted IL-10 production	reversed	elevated IL-10 production	conferred host protection	diminished weight loss	enhanced	xanthurenic acid	resistance	Cyp1a1 transcripts (MODE-K cells [1]): induced expression of these genes in vitro and in vivo; Cyp1a1 transcripts in IEC in vivo (C57Bl/6 mice [4]; [13]): induction of Cyp1a1; Mttp transcripts in IEC in vivo (C57Bl/6 mice [4]; [13]): Decreased Mttp levels; inflammation in animals under GF conditions (C57Bl/6 mice [4]; germ free animals): induce inflammation; weight loss in GF animals compared to SPF animals (C57Bl/6 mice [4]; germ free vs SPF, intra-rectal challenge): increased weight loss; histopathology in GF animals (C57Bl/6 mice [4]; germ free, intra-rectal challenge): severe histopathology; Th1 and Th2 cytokines (IL-13, IFN-γ) from colon explants (C57Bl/6 mice [4]; [14]): induction of both Th1 and 2 cytokines; histological pathology of the colon (C57Bl/6 mice [4]; [14]): CD1d-dependent pathology was observed; IDO1 enzymatic activity (human IDO1(hIDO1)): IDO1 activators; anti-gyrase activity (DNA gyrase): no anti-gyrase activity
CCO/C=C1\N=C(c2ccccc2)OC1=O [oxazolone, 4-ethoxymethylene-2-phenyl-2-oxazolin-5-one]	induction; also recorded: induced expression of these genes in vitro and in vivo	reversed	no longer attenuated	decreased IL-10 production	reduced when AhR was silenced	attenuation of CD1d-restricted IL-10 production	reversed	elevated IL-10 production	conferred host protection	diminished weight loss	enhanced	kyneurenic acid	resistance	Mttp transcripts (MODE-K cells [1]; [10]): down-regulation; CD1d-restricted IL-10 production (MODE-K cells [2]; MODE-K pre-conditioned with compound, loaded with α-GC, co-culture with 24.7 iNKT hybridoma): attenuated IL-10 production; also recorded: limited; epithelial derived IL-10 (MODE-K cells [2]; co-culture with autoreactive iNKT cell hybridoma (24.8)): suppressed; epithelial derived IL-10 (MODE-K cells [2]; co-culture with autoreactive non-invariant dNKT cell hybridoma (14S.6)): suppressed; loading of α-GC on CD1d at the cell surface (L363 staining) (MODE-K cells [3]; MODE-K cells conditioned with compound): decreased loading of α-GC on CD1d at the cell surface; also recorded: decreased cell surface staining; CD1d protein expression or distribution between intracellular and cell surface pools (MODE-K cells [5]): did not display altered CD1d protein expression or distribution; IFN-γ production [6]: not affected; effect of skin pre-sensitization with the other compound (oxazolone or TMO) on rectal responses (C57Bl/6 mice [4]; topical sensitization followed by intra-rectal challenge): did not affect; AhR transcriptional activity [7]: induced robust AhR transcriptional activity; inflammation in animals under GF conditions (C57Bl/6 mice [8]): induce inflammation; Ido1 transcripts [9]: increased transcripts; Mttp transcripts [9]: decreased transcripts; cyp1a1 transcripts [9]: increased transcripts

— patent US11591300B2, “Oxazole containing compounds as activators of IDO1 and AhR” (The Brigham and Women's Hospital, Inc., priority 2017, dated 2023)
